Reference: the supplement of paper PMC6045584
± gives the standard deviation of the averaged measurements.

Columns and labels:
AFIMOXIFENE = compound: CC/C(=C(\c1ccc(O)cc1)c1ccc(OCCN(C)C)cc1)c1ccccc1 [AFIMOXIFENE]; assay: surviving fraction relative to DMSO-only wells; higher = less growth inhibition; settings: exposure time: 5 days
Summary of the method: (§1)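 A line counted only if its three screens reached replicate Pearson r >0.7 and median Z' >0.3. Tumour cells in log phase were seeded at 250–500 per well in 384-well plates and, after 24 hours, kept in continuous contact with inhibitors at 0.5, 1, 5, 10, 50, 100, 500 and 1000 nM for five days. Surviving fraction was taken from CellTiter-Glo luminescence relative to the median of DMSO-only wells.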

NILOTINIB = compound: Cc1cn(-c2cc(NC(=O)c3ccc(C)c(Nc4nccc(-c5cccnc5)n4)c3)cc(C(F)(F)F)c2)cn1 [NILOTINIB]; assay: as above; settings: exposure time: 5 days
Summary of the method: as §1

Test System	surviving fraction (AFIMOXIFENE; 0.5 nM)	surviving fraction (AFIMOXIFENE; 1 nM)	surviving fraction (AFIMOXIFENE; 5 nM)	surviving fraction (AFIMOXIFENE; 10 nM)	surviving fraction (AFIMOXIFENE; 50 nM)	surviving fraction (AFIMOXIFENE; 100 nM)	surviving fraction (AFIMOXIFENE; 500 nM)	surviving fraction (AFIMOXIFENE; 1000 nM)	surviving fraction (NILOTINIB; 0.5 nM)	surviving fraction (NILOTINIB; 1 nM)	surviving fraction (NILOTINIB; 5 nM)	surviving fraction (NILOTINIB; 10 nM)	surviving fraction (NILOTINIB; 50 nM)	surviving fraction (NILOTINIB; 100 nM)	surviving fraction (NILOTINIB; 500 nM)	surviving fraction (NILOTINIB; 1000 nM)
CCK81 LARGE INTESTINE	0.822 ± 0.1	0.889 ± 0.095	0.866 ± 0.083	0.822 ± 0.09	0.987 ± 0.24	0.749 ± 0.051	0.932 ± 0.04	0.82 ± 0.027	0.78 ± 0.088	0.839 ± 0.07	0.759 ± 0.055	0.737 ± 0.11	0.931 ± 0.04	0.877 ± 0.046	0.702 ± 0.1	0.616 ± 0.023
G292 BONE	1.02 ± 0.016	1.01 ± 0.011	0.98 ± 0.033	1.02 ± 0.013	0.9545 ± 0.0072	1.015 ± 0.0096	0.903 ± 0.036	0.931 ± 0.048	1.04 ± 0.042	1 ± 0.044	1.08 ± 0.033	1.06 ± 0.048	1.08 ± 0.031	1.1 ± 0.023	1.02 ± 0.013	0.956 ± 0.023
HCC38 BREAST	1.19 ± 0.1	1.1 ± 0.23	1.19 ± 0.19	1.2 ± 0.23		1.13 ± 0.18	0.99 ± 0.24	0.952 ± 0.08	0.988 ± 0.28	0.786 ± 0.015	1.01 ± 0.16	0.818 ± 0.15	0.742 ± 0.2	0.758 ± 0.039	0.823 ± 0.24	0.824 ± 0.16
HCC70 BREAST	1.05 ± 0.079	1.1 ± 0.027	1.08 ± 0.074	1.06 ± 0.03	1.19 ± 0.091	1.18 ± 0.062	1.04 ± 0.076	1.03 ± 0.071	1.07 ± 0.049	1.13 ± 0.036	1.12 ± 0.02	1.09 ± 0.13	1.17 ± 0.052	1.33 ± 0.072	1.34 ± 0.079	1.31 ± 0.04
HMLE3 BREAST	1.06 ± 0.032	1.11 ± 0.062	1.2 ± 0.014	1.06 ± 0.05	1.12 ± 0.06	1.2 ± 0.12	1.09 ± 0.1	1.13 ± 0.1	1.11 ± 0.018	1.07 ± 0.11	1.19 ± 0.1	1.18 ± 0.15	1.25 ± 0.026	1.26 ± 0.068	1.27 ± 0.15	1.23 ± 0.18
HMT3552 BREAST	1.05 ± 0.062	1.02 ± 0.053		1 ± 0.042	1.15 ± 0.07	1.18 ± 0.061	1.18 ± 0.034	1 ± 0.076	1.01 ± 0.031	0.968 ± 0.018	1.04 ± 0.021	1.02 ± 0.018	1.09 ± 0.11	1.07 ± 0.11	1.12 ± 0.12	1.1 ± 0.069
HS578T BREAST	1.11 ± 0.14	0.963 ± 0.32	1.15 ± 0.17	1.01 ± 0.1	1.07 ± 0.062	1.24 ± 0.11	1.19 ± 0.19	1.21 ± 0.15	0.935 ± 0.21	1.06 ± 0.049	0.932 ± 0.16	0.796 ± 0.052	0.766 ± 0.084	0.841 ± 0.1	0.848 ± 0.091	0.669 ± 0.058
